“And” between values parts separate entries of the source, which are not always exact repeats. Equal entries are not always repeated. Residues, ends and D or L forms follow the SMILES beside them.

In data set [1] the test system is established P. aeruginosa biofilms. In words: SYTOX Green membrane permeabilization assay on biofilm. The data set is classed as cell-based, Pseudomonas aeruginosa. The note with it: maximum percentage at final incubation time, 10% Triton X-100 reference. Here is the method:
(§1) Membrane permeabilization was followed using the method SYTOX Green Fluorescence membrane permeabilization assay. In the planktonic assay, bacterial cells were grown at 37° C. to an OD600=0.2, centrifuged at 5000×g for 5 min, and resuspended in 1×PBS to an OD600=0.2. An aliquot of 200 μl was then transferred to a microtiter plate. For biofilm assay, 24 h formed P. aeruginosa biofilm in a 96-well microtiter plate were washed three times with sterile PBS. SYTOX Green was added to a final concentration of 1 μM and incubated 15 min in darkness. Changes in the fluorescence were continuously recorded after addition of a serially diluted protein/peptides from 50 to 0.1 μM in a Victor3 plate reader. The peptide concentration required to achieve half of total and total membrane permeabilization achieved after 40 min was estimated from nonlinear regression analysis as previously described (Pulido D. et al. Antimicrob Agents Chemother 2013). A maximum reference value was taken for Triton X-100 at 10%.
(§2) Thereupon, the antimicrobial mechanism of action of the RNase 3 derived peptide on P. aeruginosa biofilms was further characterized with the depolarization and permeabilization assays. As applied for the P. aeruginosa planktonic culture, the fluorescent DisC3(5) assay was also used here in order to monitor the depolarization activity of the studied protein and peptides against established biofilms. Therefore, we have measured the half depolarization action (ED50), and the total depolarization activity expressed as a percentage (Table 7). […] Similar results were obtained for the Sytox Green permeabilization assay, where the total permeabilization effect was hindered for all the AMPs tested, and between two to ten times higher concentrations were required to achieve half of the biofilm cell permeabilizing effect in comparison to the planktonic cells.

The subject of data set [2] is planktonic P. aeruginosa. It is filed as cell-based, Pseudomonas aeruginosa. The note with it: planktonic, 4 h. Here is the method: The microbial cell viability was then assayed using the BacTiter-Glo™ luminescent kit. […] No cell reduction was detected for the peptide GL-13 even for the maximum concentration assayed (50 μM).
(§3) Bacterial viability was assayed using the BacTiter-Glo™ microbial cell viability kit. Briefly, protein/peptides were dissolved in 10 mM sodium phosphate, 0.1M buffer, pH 7.5, serially diluted from 50 to 0.1 μM and tested in a 96-well microtiter plate containing P. aeruginosa planktonic (OD600˜0.2) or 24 h formed biofilm for 4 h at 37° C. Fifty microliters of BacTiter-Glo™ reagent was added to each well according to the manufacturer's instructions and incubated at room temperature for 15 min. Luminescence was read on a Victor3 plate reader with a 3-s integration time. Fifty percent (ED50) and total inhibitory concentrations were calculated by fitting the data to a dose-response curve.

Data set [3] deals with pre-established P. aeruginosa biofilm. Nature of the data set: Biofilm eradication assay, crystal violet staining. The data set is classed as cell-based, Pseudomonas aeruginosa. Here is the method:
Following, the biofilm eradication activity was determined (FIG. 1 and Table 6). […] Moreover, the biofilm eradication activity of all the tested reference peptides was well above the maximum concentration tested (50 μM), except for RN3(5-17P22-36) which was able to eradicate the biofilm close to 50 μM.
(§4) Biofilm formation assay was modified from the previously described protocol (Huedo P. et al. 2014). Briefly, overnight cultures of P. aeruginosa were centrifuged at 5000×g for 5 min, washed and adjusted to an OD600=0.1 in tryptic soy medium (TSB). Two hundred microliters of the bacterial suspension were dispensed in each well of a polystyrene 96-well microtiter plate (Greiner Bio-one, France). The plate was incubated at 37° C. on an orbital shaker (30 rpm). The media was exchanged with fresh pre-warmed TSB after 4 h, in order to remove the non-attached bacteria. After 24 h incubation, the formation of biofilm was then evaluated using the crystal violet staining technique (Stepanovic S. et al. 2000). Briefly, the plates were washed three times with PBS, fixed at 60° C. for 1 h, and stained for 15 min with 200 μl of 0.1% crystal violet. After the dye was discarded, plates were rinsed in PBS and allowed to dry for 30 min at 37° C. Crystal violet was dissolved in 250 μl of 95% ethanol for 15 min, and the OD570 of the extracted dye was measured using a Victor3 plate reader (Perkin-Elmer, Waltham, Mass.).
Biofilms were grown as above. Twenty-four hour formed P. aeruginosa biofilm was washed three times with sterile PBS, and rinsed with 10 mM sodium phosphate buffer pH 7.5. Each well was treated with increasing protein/peptide concentrations (from 0.01 to 50 μM) and incubated at 37° C. for 4 h. The biofilm eradication was then evaluated using the crystal violet staining technique (Stepanovic S. et al. 2000). The ability of the antimicrobial peptides to disperse and reduce the biofilm mass of preformed biofilms was calculated. The peptide concentration required to achieve total preformed biofilm eradication after 4 h incubation time was estimated. A maximum reference value was taken for Triton X-100 at 10%. The minimum biofilm eradication concentration (MBEC), defined as the protein/peptide concentration where the 99.9% of the biofilm mass is eradicated was estimated.

Data set [4] can be described thus: Biofilm cell mortality, BacTiter-Glo luminescent assay. The data set is classed as cell-based, Pseudomonas aeruginosa. The note with it: 24 h formed biofilm; 4 h at 37° C.; 10% Triton X-100 as maximum reference; N.D. = not detected at 50 μM; read-out: Biofilm cell mortality (%max). How it is done:
as §3
As a first approach, the biofilm cell viability was monitored using the BacTiter-Glo™ luminescent assay. Therefore, the antimicrobial action of the studied AMPs was determined on already established P. aeruginosa biolfilms (FIG. 1 and Table 6). […] However, for all the active peptides, the concentrations needed to produce an equivalent effect in biofilms were between 2 to 10 times higher than in planktonic cultures. […] At the same time, we applied the crystal violet technique to assess the peptide ability to disperse pre-established P. aeruginosa biofilms.
as §4

The test system of data set [5] is established P. aeruginosa biofilms. Nature of the data set: DiSC3(5) membrane depolarization assay on biofilm. The data set is classed as cell-based, Pseudomonas aeruginosa. The settings on record: maximum percentage at final incubation time, 10% Triton X-100 reference. How it is done: Membrane depolarization was followed using the method described earlier (Torrent M. et al. 2008). Briefly, bacterial cells were grown at 37° C. to an OD600=0.2, centrifuged at 5000×g for 7 min, washed with 5 mM Hepes at pH 7.2 containing 20 mM glucose, and resuspended in 5 mM Hepes-KOH, 20 mM glucose, and 100 mM KCl at pH 7.2 to an OD600=0.05 and 200 μl were transferred to a microtiter plate for planktonic assays. For biofilm assay, 24 h formed P. aeruginosa biofilm in a 96-well microtiter plate were washed three times with sterile PBS. Afterwards P. aeruginosa biofilms were washed with 5 mM Hepes at pH 7.2 containing 20 mM glucose, and rinsed in 5 mM Hepes-KOH, 20 mM glucose, and 100 mM KCl at pH 7.2. In both cases, DiSC3(5) was added to a final concentration of 0.4 μM and changes in the fluorescence were continuously recorded after addition of peptides at 10 μM in a Victor3 plate reader. A maximum reference value for total depolarization is calculated for Triton X-100 at 10%. Alternatively, changes in the fluorescence were continuously recorded after addition of a serially diluted protein/peptides from 50 to 0.1 μM. The peptide concentration required to achieve half of total and total membrane depolarization after 40 min incubation time was estimated from nonlinear regression analysis as previously described (Torrent M. et al. 2010)
as §2

Data set [6] concerns planktonic P. aeruginosa. Nature of the data set: Minimum agglutination concentration (MAC) assay. The data set is classed as cell-based, Pseudomonas aeruginosa. The note with it: 1 h at room temperature, mean ± SEM. How it is done:
Bacterial agglutination of RNase 3 is important for the antimicrobial activity of the protein. Therefore, the peptide capability to agglutinate P. aeruginosa cells was assayed by the minimum agglutination concentration assay (MAC) (Table 3).
Bacterial cells were grown in LB at 37° C. to an OD600=0.2, centrifuged at 5000×g for 2 min and resuspended in 10 mM Tris-HCl buffer, 0.1 M NaCl, pH 7.5. An aliquot of 100 μl of the bacterial suspension was treated with increasing protein/peptide concentrations (from 0.01 to 50 μM) and incubated at room temperature for 1 h. The aggregation behavior was observed by visual inspection and the agglutinating activity is expressed as the minimum agglutinating concentration of the sample tested, as previously described (Torrent M. et al. 2012).

For data set [7], the system named is planktonic P. aeruginosa. Nature of the data set: SYTOX Green membrane permeabilization assay, planktonic. The data set is classed as cell-based, Pseudomonas aeruginosa. The settings on record: 10% Triton X-100 as maximum reference. Here is the method:
Further insight into the membrane-permeabilizing effect of the selected AMPs against P. aeruginosa was evaluated by the Sytox Green assay. Local membrane disturbances allow the cell uptake of the fluorescent Sytox Green dye that subsequently stains the cell nucleic acids; the fluorescence increase is registered to monitor the cell membrane permeabilization. Therefore, the half permeabilization action (ED50) was measured, and the total permeabilization activity expressed as a percentage (Table 5). […] On the other hand, WY-12 and CA-M required a 6- to 7-fold greater concentration than RNase 3 to produce half of their permeabilizing effect.
as §1

Data set [8] deals with biofilm-producing microorganism. In words: Antimicrobial and antibiofilm activities of peptides from the design process. The settings on record: peptide from the design process. The data set is classed as cell-based. The text has this:
Furthermore, even though the peptide has been designed with the RNAse 3 sequence as starting point, the peptide has surprising advantages in respect of the RNase 3 due to the specific deletion and selection of the amino acids conforming the peptide amino acid. […] This is the case of the peptide ECP(7-13)(32-36) with sequence SEQ ID NO: 7.

As for `CC[C@H](C)[C@H](NC(=O)[C@H](C)NC(=O)[C@H](CCCNC(=N)N)NC(=O)[C@H](CCSC)NC(=O)[C@H](C)NC(=O)[C@@H](NC(=O)[C@@H](NC(=O)[C@H](CCCNC(=N)N)NC(=O)[C@@H]1CCCN1C(=O)[C@H](CO)NC(=O)[C@@H](NC(=O)[C@H](Cc1c[nH]cn1)NC(=O)[C@H](CCC(N)=O)NC(=O)[C@@H](NC(=O)[C@H](C)NC(=O)[C@H](Cc1ccccc1)NC(=O)[C@H](Cc1c[nH]c2ccccc12)NC(=O)[C@H](CCC(N)=O)NC(=O)[C@H](C)NC(=O)[C@H](CCCNC(=N)N)NC(=O)[C@@H](NC(=O)[C@H](Cc1ccccc1)NC(=O)[C@@H]1CCCN1C(=O)[C@@H](N)CCCNC(=N)N)[C@@H](C)O)[C@@H](C)CC)[C@@H](C)CC)[C@@H](C)O)[C@@H](C)CC)C(=O)N[C@@H](CC(N)=O)C(=O)N[C@@H](CC(N)=O)C(=O)N[C@@H](Cc1ccc(O)cc1)C(=O)N[C@@H](CCCNC(=N)N)C(=O)N[C@@H](Cc1c[nH]c2ccccc12)C(=O)N[C@@H](CCCNC(=N)N)C(N)=O` [RN3(5-17P22-36)] (H-RPFTRAQWFAIQHISPRTIAMRAINNYRWR-NH2; N-terminus assumed), the “Permeabilization Mean % ± SEM” value in data set [1] was determined as 64.26 ± 5.44%. In data set [2], this molecule had an IC50 of 1250 ± 100 nM. Also, the “Biofilm eradication (%max)” value in data set [3] (24 h formed biofilm, 4 h at 37° C., 10% Triton X-100 as maximum reference, listed as the peptide of the invention) was “totally disperse the cell community layer”. In data set [3] (total eradication of preformed biofilm, 4 h, max tested 50 μM), the “biofilm eradication concentration (MBEC)” value is around 50 µM. For the same molecule, the mortality in data set [4] stood at 96.4 ± 2.41%. In addition, the “Depolarization Mean % ± SEM” value in data set [5] stood at 73.51 ± 1.94%. Moreover, the “MAC (minimum agglutinating activity)” value in data set [6] is 1.5 µM and 1.50 ± 0.08 µM. Besides, the Permeabilization %max in data set [7] is given as 63.63 ± 1.42%.

Take “ECP(7-13)(32-36): design-process peptide with sequence SEQ ID NO: 7, lacking the antimicrobial and antibiofilm activities (RAQWFAINYRWR; peptide ECP(7-13)(32-36))”: the “antimicrobial and antibiofilm activities” value in data set [8] is “did not display the antimicrobial and antibiofilm activities”.

The record behind these values is patent publication US10487117B2, “Antimicrobial peptide for nosocomial infections” (priority 2015, dated 2019).
